Entries after “also recorded” stand apart in the source; their conditions may differ. Marks after values point to notes of the source that are not given here. Values belong to the molecule of their own block, whether it stands above or below them.
Key:
[1] = system: plasma protein; assay: DM-4103 plasma protein binding, micropartition device (Centrifree YM-30) with HPLC-MS/MS; assay type: in vitro ADME
Experimental: The effect of six other highly plasma protein bound compounds on DM-4103 binding was also evaluated. […] No potential for interaction at either transporter would have been predicted if a free fraction of 0.1% had been used, consistent with the clinical findings.

[2] = Earlier clinical data for tolvaptan and DM-4103 (PK, tolerability; data on file); assay type: in vivo, human
[3] = biological target: T1, human (OATP)1B1 (Homo sapiens, UniProt Q9Y6L6)
T1 sequence (Q9Y6L6 1-691): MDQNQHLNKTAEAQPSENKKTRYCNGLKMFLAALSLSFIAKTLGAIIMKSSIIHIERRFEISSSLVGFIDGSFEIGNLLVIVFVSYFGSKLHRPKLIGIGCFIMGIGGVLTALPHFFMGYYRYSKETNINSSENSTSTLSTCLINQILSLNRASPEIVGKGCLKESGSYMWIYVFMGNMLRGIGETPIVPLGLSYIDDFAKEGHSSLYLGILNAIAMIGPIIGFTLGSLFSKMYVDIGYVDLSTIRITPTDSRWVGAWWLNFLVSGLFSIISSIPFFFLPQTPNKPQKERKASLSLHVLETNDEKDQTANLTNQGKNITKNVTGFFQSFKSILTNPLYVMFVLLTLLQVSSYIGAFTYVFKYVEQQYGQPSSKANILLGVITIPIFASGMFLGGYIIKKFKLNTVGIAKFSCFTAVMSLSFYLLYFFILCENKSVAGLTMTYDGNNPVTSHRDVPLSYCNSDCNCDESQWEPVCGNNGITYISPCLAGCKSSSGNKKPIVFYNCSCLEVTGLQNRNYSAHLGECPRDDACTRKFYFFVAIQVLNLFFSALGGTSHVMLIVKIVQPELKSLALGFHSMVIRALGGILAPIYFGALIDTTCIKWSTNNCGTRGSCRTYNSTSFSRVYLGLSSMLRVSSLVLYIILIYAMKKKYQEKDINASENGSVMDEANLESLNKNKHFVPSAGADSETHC
Experimental: (OATP)1B1: Estradiol 17β-D-glucuronide transport was evaluated in HEK293 cells stably expressing human (OATP)1B1 (kit with ready to use 24 well plates were obtained from GenoMembrane). […] DM-4103 concentrations of 0.064, 0.32, 1.6, 8.0, 40, and 200 μM were tested.

[4] = biological target: T2, (OAT)3 (Homo sapiens, UniProt Q8TCC7); assay: Estrone 3-sulfate transport inhibition in HEK293 cells stably expressing human (OAT)3; assay type: cell-based; set-up: host or cells: HEK293
T2 sequence (Q8TCC7 1-542): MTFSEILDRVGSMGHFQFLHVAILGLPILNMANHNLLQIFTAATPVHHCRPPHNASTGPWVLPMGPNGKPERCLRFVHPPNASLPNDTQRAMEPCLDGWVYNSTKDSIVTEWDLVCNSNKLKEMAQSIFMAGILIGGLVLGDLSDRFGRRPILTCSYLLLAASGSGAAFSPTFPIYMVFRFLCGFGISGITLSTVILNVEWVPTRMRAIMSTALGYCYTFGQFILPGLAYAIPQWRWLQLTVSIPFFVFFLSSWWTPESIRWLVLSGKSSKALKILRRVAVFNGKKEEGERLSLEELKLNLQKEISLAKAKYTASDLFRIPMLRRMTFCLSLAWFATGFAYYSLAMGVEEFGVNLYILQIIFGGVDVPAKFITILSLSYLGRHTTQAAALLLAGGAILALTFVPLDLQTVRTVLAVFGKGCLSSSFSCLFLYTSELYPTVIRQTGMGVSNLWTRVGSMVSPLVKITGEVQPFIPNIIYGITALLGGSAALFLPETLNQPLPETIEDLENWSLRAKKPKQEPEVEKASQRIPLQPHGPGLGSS
Experimental: (OAT)3: Estrone 3-sulfate transport was evaluated in HEK293 cells stably expressing human (OAT)3 (kit with ready to use 24 well plates were obtained from GenoMembrane). […] DM-4103 concentrations of 0.064, 0.32, 1.6, 8.0, 40, and 200 μM were tested.

[5] = biological target: T2, (OAT)3; assay: Trial 2: (OAT)3 inhibition, furosemide in presence of DM-4103 vs. furosemide alone; assay type: in vivo; set-up: endogenous in cells; host or cells: healthy human subjects, in vivo; details: furosemide 48 hours following 7 days of 300 mg tolvaptan q.d.
[6] = Trial 1: plasma rosuvastatin PK, tolvaptan and DM-4103 plasma concentrations, adverse events in healthy subjects
Experimental: (§1) Trial 1 was designed as an open-label, 3-period, sequential crossover. […] On days 7 to 13, 300 mg tolvaptan was administered q.d.
Doses on pharmacokinetic (PK) sampling days were administered in the fasted state with 240 ml of room temperature still water. No food was allowed from 10 h prior to dosing until lunch was given following the 4 h post-dose assessments; water was available ad libitum except for +/−2 h around dosing. On non-PK sampling days, tolvaptan was administered at least 30 min prior to breakfast. Safety was evaluated by laboratory values, vital signs, and 12-lead electrocardiogram (ECG) at screening, day 1, and discharge (no ECG), and adverse event reports.
A 90 mg dose of tolvaptan was chosen as it is the highest dose administered at any given time in the treatment of ADPKD.
The assay used to determine plasma tolvaptan concentrations also included DM-4103 as a standard. The precursor→production was m/z 479→252.

[7] = in vivo; cited from earlier work
[8] = Tolvaptan solubility; assay type: physicochemical; details: pH independent
[9] = Phase III ADPKD trials: statin use with tolvaptan; assay type: in vivo, human; details: subjects taking tolvaptan alone or tolvaptan plus statins
[10] = Phase II and III congestive heart failure trials: tolvaptan with furosemide; assay type: in vivo, human; details: tolvaptan+furosemide compared with placebo+furosemide
[11] = biological target: T3, BCRP (Homo sapiens, UniProt Q9UNQ0)
T3 sequence (Q9UNQ0 1-655): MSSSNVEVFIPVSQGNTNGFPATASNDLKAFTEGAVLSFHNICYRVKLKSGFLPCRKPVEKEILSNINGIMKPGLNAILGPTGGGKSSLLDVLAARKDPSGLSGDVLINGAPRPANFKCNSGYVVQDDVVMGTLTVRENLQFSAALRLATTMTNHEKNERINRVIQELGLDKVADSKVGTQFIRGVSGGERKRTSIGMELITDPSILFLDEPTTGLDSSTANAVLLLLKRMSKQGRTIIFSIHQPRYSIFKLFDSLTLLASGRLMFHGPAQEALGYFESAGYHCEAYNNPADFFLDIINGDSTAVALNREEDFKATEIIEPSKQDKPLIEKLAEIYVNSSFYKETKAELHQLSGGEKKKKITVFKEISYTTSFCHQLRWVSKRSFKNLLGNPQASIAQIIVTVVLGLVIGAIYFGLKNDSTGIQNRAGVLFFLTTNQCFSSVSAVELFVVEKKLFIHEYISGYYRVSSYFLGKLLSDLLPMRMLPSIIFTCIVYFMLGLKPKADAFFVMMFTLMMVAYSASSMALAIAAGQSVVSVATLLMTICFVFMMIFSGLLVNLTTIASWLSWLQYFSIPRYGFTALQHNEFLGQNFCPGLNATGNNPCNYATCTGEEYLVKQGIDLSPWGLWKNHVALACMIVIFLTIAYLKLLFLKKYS
Experimental: BCRP: Prazosin transport was evaluated in MDCKII BCRP-expressing cells (obtained from SOLVO Biotechnology) precultured for six to eight days.

[12] = 300 mg tolvaptan for 5 days, healthy subjects; cited from earlier work
[13] = biological target: T4, sodium-dependent tauro-cholate co-transporting polypeptide (NTCP) (Homo sapiens, UniProt Q14973); details: cited from earlier work
T4 sequence (Q14973 1-349): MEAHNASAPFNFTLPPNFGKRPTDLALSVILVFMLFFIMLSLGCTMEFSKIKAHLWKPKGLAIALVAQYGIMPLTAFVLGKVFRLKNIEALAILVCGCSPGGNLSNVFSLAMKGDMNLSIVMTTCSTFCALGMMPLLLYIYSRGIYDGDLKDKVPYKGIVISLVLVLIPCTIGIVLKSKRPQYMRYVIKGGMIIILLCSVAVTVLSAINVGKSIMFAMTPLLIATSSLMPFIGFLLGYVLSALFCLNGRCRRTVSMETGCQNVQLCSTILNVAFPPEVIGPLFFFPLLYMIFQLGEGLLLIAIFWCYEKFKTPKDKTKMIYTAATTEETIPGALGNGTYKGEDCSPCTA

[14] = system: sandwich-cultured human hepatocytes; details: cited from earlier work
[15] = predicted; cited from earlier work
[16] = biological target: T3, BCRP; assay: Trial 1: BCRP inhibition, rosuvastatin + tolvaptan vs. rosuvastatin alone; assay type: in vivo; set-up: endogenous in cells; host or cells: healthy human subjects, in vivo; details: 90 mg tolvaptan with 5 mg rosuvastatin calcium
Experimental: as §1
An analysis of variance with a factor of period and random effect of subjects was performed on the natural-log transformed PK parameters using the MIXED procedure in SAS. From each analysis, the least square means, their difference, and the 90% CI for their difference were derived. Then, the anti-logs of the difference and the confidence limits provided the estimate and 90% CI for the ratio of the geometric means of the test treatment to the reference treatment. Only subjects with values in both treatments were used in the analysis.

- plasma protein binding (PPB) [1]: greater than 99.8%
- DM-4103 binding in presence of six other highly plasma protein bound compounds ([1]; all samples, no interactions detected): greater than 99.8%
- IC50 [3]: 255 nM
- inhibitor of (OATP)1B1 in vitro [3]: inhibitor
- IC50 ([4]; (OAT)3 overexpressing HEK293 cells, read-out: IC50 estimate, inhibition of estrone 3-sulfate transport): 425 nM
- DM-4103 concentration at which the ratio is equal to 0.1 ([4]; Imax,u/IC50 for (OAT)3, fu,p 0.01): ~2034 ng/mL
- inhibitor of (OAT)3 in vitro ([4]; in vitro): inhibitor
SMILES: Cc1ccccc1C(=O)Nc1ccc(C(=O)Nc2ccc(Cl)cc2C(=O)CCC(=O)O)c(C)c1 [DM-4103]
- plasma concentrations ([2]; first 2 hours following a 90 mg tolvaptan dose): less than 100 ng/ml
- elimination half-life ([2]; human, in vivo): ~180 h
- time to steady-state concentrations after the start of tolvaptan dosing ([2]; human, in vivo): ~8 weeks
- inhibition of (OAT)3 in healthy subjects [5]: No inhibition; also recorded: not an inhibitor

SMILES: CCCN(CCC)S(=O)(=O)c1ccc(C(=O)O)cc1 [Probenecid]
- inhibition at 30 µM ([4]; HEK293, read-out: inhibition of estrone 3-sulfate transport): 91.1%

SMILES: CC(C)c1nc(N(C)S(C)(=O)=O)nc(-c2ccc(F)cc2)c1/C=C/[C@@H](O)C[C@@H](O)CC(=O)O [rosuvastatin]
- Tmax ([6]; 5 mg ROS in presence of DM-4103, median): 4.00 h
- Tmax ([6]; 5 mg rosuvastatin + 90 mg tolvaptan, median): 3.03 h
- TEAE incidence: nausea ([6]; human, in vivo): 12.5%
- AUCt ([6]; human, in vivo, 5 mg): 18.9 ng·h/mL
- AUC∞ ([6]; human, in vivo, 5 mg): 20.3-36.0** ng*h/ml
- Cmax ([6]; human, in vivo, 5 mg): 2.81 ng/mL
- Tmax ([6]; human, in vivo, 5 mg): 3.50 h
- t1/2, z ([6]; human, in vivo, 5 mg): 2.4-4.3** h
- observed increases in rosuvastatin maximal peak plasma concentration (Cmax) [7]: up to 11 fold

- solubility [8]: about 0.01 g/250 ml
- IC50 [11]: 8320 nM
- Igut/IC50 (printed as predicted Ki) ([11]; human): 96.4
- inhibition of BCRP in healthy subjects [16]: No clinically-relevant inhibition
SMILES: Cc1ccccc1C(=O)Nc1ccc(C(=O)N2CCCC(O)c3cc(Cl)ccc32)c(C)c1 (stereo not shown) [tolvaptan, 7-chloro-5-hydroxy-1-[2-methyl-4-(2-methylbenzoylamino)benzoyl]-2,3,4,5-tetrahydro-1H-benzoazepine]
- half-life ([2]; human, in vivo): ~3.5 h
- accumulation ([2]; steady-state concentrations achieved on day 1): no accumulation
- statin use or incidences of statin-related adverse events [9]: no differences
- incidence of adverse events [10]: similar
- safety and tolerability [12]: safe and well-tolerated
- NTCP IC50 value relative to Cmax [13]: higher than Cmax
- inhibitor of NTCP [13]: inhibitor of NTCP
- accumulation in sandwich-cultured human hepatocytes [14]: at least 10 fold
- liver:blood ratio [15]: 38.76

Reference: patent US20230158041A1, “METHODS AND COMPOSITIONS FOR TREATING AUTOSOMAL DOMINANT POLYCYSTIC KIDNEY DISEASE” (OTSUKA PHARMACEUTICAL CO.,LTD., priority 2021, published 2023)
